Experimental data from paper PMC12655637, “Design, Synthesis, and Mechanistic Study of Novel Ciprofloxacin/Thiazole Chalcone Hybrids as Potential Anticancer Agents” (Pharmaceuticals, 2025).
Values joined by “and” are separate entries in the source; they are usually repeats but may differ in a detail not shown here. Equal values may be shown once.

Tests used:
[1] = In vitro cytotoxicity against normal cell line WI 38; assay type: cell-based; conditions: human, WI-38 normal cell line; for viability at 0.4 µM: WI38, 0.4uM; for viability at 1.6 µM: WI38, 1.6uM; for viability at 6.3 µM: WI38, 6.3uM; for viability at 25 µM: WI38, 25uM; for viability at 100 µM: WI38, 100uM; for IC50: ± SEM
Text: Detailed results of cytotoxicity of compounds 4b and 4d against normal cell
Blank CC Sample No. 4b/WI38 sample no. 4d/WI38
conc. viability conc. viability

[2] = test system: leukemia HL-60, RPMI-8226, and colon HCT-116 cells; test: Antiproliferative activity, IC50 range over three cell lines; assay type: cell-based; conditions: Homo sapiens; range over HL-60, RPMI-8226 and HCT-116
[3] = test system: Prostate Cancer cell lines; test: NCI five-dose testing, subpanel (MID b, selectivity); conditions: for SI: full-panel MG-MID / subpanel MG-MID, PC (prostate); for MG-MID: mean activity across subpanel PC (prostate)
Text: (§1) The log10 GI50, log10 TGI, and log10 LC50 values were subsequently calculated as the averages of the log10 values of the respective individual GI50, TGI, and LC50 measurements. Negative numbers signified the most sensitive cell lines.
(§2) One way to measure a compound’s selectivity is to divide its subpanel MID^b (in μM) by the MID^a (in μM), which is the average sensitivity of all cell lines to the test agent.
(§3) At the National Cancer Institute (NCI) in Bethesda, USA, researchers examined the anticancer potential of the target compounds under investigation using nine panels of sixty different cell lines obtained from nine different cancers that were housed in the NCI library. Following the protocols laid out by the National Cancer Institute (https://dctd.cancer.gov/data-tools-biospecimens/data (accessed on 15 March 2023 and 6 January 2024)), the screening procedures were carried out [37]. The anticancer screening was carried out at a single dose of 10^−5 M; the results obtained were expressed as growth inhibition (%).
(§4) The anti-cancer potential of the tested compounds was evaluated at the National cancer institute (NCI), Bethesda, USA, against 9 panels of 60 various cell lines derived from nine human tumours available usually at NCI library. The procedures for the screening were described in details in NCI website (dttp://www.dtp.nci.nih.gov.) and were done according to NCI protocols. The anticancer screening was carried out at single dose of 10^-5 M. The results obtained as growth inhibition (%).
(§5) Cell lines were grown in Roswell Park Memorial Institute medium (RPMI) with 5% fetal bovine serum and 2% μM L-glutamine. Cancer cells are inoculated into 96 well microtiter plates in 100 μL at plating densities ranging from 5000 to 40,000 cells/well depending on the doubling time of individual cell lines. Then microtiter plates are incubated at 37 °C, 5% CO2, 95% air and 100% relative humidity for 24 h prior to the addition of the tested compounds. After 24 h, two plates of each cell line are fixed in situ with trichloroacetic acid (TCA). The tested compounds were dissolved in dimethyl sulfoxide (DMSO) and stored in the freezer prior to use. An aliquot of frozen drug concentrate is diluted to the desired concentration with complete medium containing 50 μg/mL gentamicin.
(§6) compounds were added to the microtiter plates followed by incubation for further 48 h at 37 °C, 5% CO2, 95% air and 100% relative humidity. Fixation of cancer cell lines is carried out through gentle addition of 50 μL of cold 50 %w/v TCA (final concentration, 10% TCA) then incubated for 60 min. at 4 °C. The plates are washed five times with tap water after getting rid of the supernatant and allowed to dry in air. Sulforhodamine B (SRB) solution (100 μL) at 0.4% w/v in 1% acetic

[4] = test system: colon HCT116 cells; test: Annexin V-FITC/PI apoptosis and necrosis assay; assay type: cell-based, human; conditions: HCT116 treated with IC50 concentration; for Apoptosis Late: DMSO 0.15%; for Apoptosis Early: DMSO 0.39%; for Apoptosis Total: DMSO 0.54%; for Necrosis: DMSO 1.83%
[5] = test system: Melanoma cell lines; test: NCI five-dose testing, subpanel (MID b, selectivity); conditions: for SI: full-panel MG-MID / subpanel MG-MID, Melanoma; for MG-MID: mean activity across subpanel Melanoma
Text: as §1, §2
(§7) At the National Cancer Institute (NCI) in Bethesda, USA, researchers examined the anticancer potential of the target compounds under investigation using nine panels of sixty different cell lines obtained from nine different cancers that were housed in the NCI library. […] The anticancer screening was carried out at a single dose of 10^−5 M; the results obtained were expressed as growth inhibition (%).
(§8) The anti-cancer potential of the tested compounds was evaluated at the National cancer institute (NCI), Bethesda, USA, against 9 panels of 60 various cell lines derived from nine human tumours available usually at NCI library. […] The anticancer screening was carried out at single dose of 10^-5 M. The results obtained as growth inhibition (%).
as §5, §6

[6] = test system: CNS Cancer cell lines; test: as above; conditions: for SI: full-panel MG-MID / subpanel MG-MID, CNS Cancer; for MG-MID: mean activity across subpanel CNS Cancer
Text: as §1, §2, §7, §8, §5, §6

[7] = test system: Breast Cancer cell lines; test: as above; conditions: for SI: full-panel MG-MID / subpanel MG-MID, Breast Cancer; for MG-MID: mean activity across subpanel Breast Cancer
Text: as §1, §2, §3, §4, §5, §6

[8] = test system: UO-31; test: NCI-60 screening, five-dose, SRB; assay type: cell-based, human; conditions: for GI50 / IC50 / LC50 (concentration killing 50% of cells): Homo sapiens
[9] = test system: Renal Cancer cell lines; test: NCI five-dose testing, subpanel (MID b, selectivity); conditions: full-panel MG-MID / subpanel MG-MID
Text: as §1, §2, §3
The anti-cancer potential of the tested compounds was evaluated at the National cancer institute (NCI), Bethesda, USA, against 9 panels of 60 various cell lines derived from nine human tumours available usually at NCI library. The procedures for the screening were described in details in NCI website (dttp://www.dtp.nci.nih.gov.) and were done according to NCI protocols. […]

[10] = test system: Colon Cancer cell lines; test: NCI five-dose testing, subpanel (GI50 range, MID b, selectivity); conditions: for GI50: Homo sapiens; for SI: full-panel MG-MID / subpanel MG-MID, Colon Cancer; for MG-MID: mean activity across subpanel Colon Cancer
Text: as §1, §2, §7, §8, §5, §6

[11] = test system: colon HCT116 cancer cell line; test: Cell cycle analysis, propidium iodide flow cytometry; conditions: for Cell cycle arrest phase: HCT116; for DNA Content G2/M Phase / DNA Content S Phase / DNA Content G0-G1 Phase: HCT116 treated with IC50 concentration; for DNA Content G2/M Phase: DMSO 8.68%; for DNA Content S Phase: DMSO 27.03%; for DNA Content G0-G1 Phase: DMSO 64.29%
Protocol: The effect of compounds 4b and 4d on the cell cycle progression of the colon HCT-116 cell line was evaluated using a Propidium Iodide Flow Cytometry Kit to measure the DNA content, as per the reported protocols [39].
Cell cycle analysis and measurement of apoptotic potential
The effect of compound 4b and 4d on cell cycle progression of colon HCT-116 cell line was evaluated using Propidium Iodide Flow Cytometry Kit to measure the DNA content according to the reported protocols. The HCT116 cells used in this work were obtained from the American Type Culture Collection. Cells were cultured in DMEM (Invitrogen/Life Technologies) supplemented with 10% FBS (Hyclone), 10 µg/ml insulin (Sigma), and 1% penicillin-streptomycin. The remaining chemicals and reagents were all from Sigma or Invitrogen. Growth media was removed, cells washed with warm PBS and aspirated. Adhered cells were detached from media by addition of 5 ml 10% trypsin/EDTA and incubated 2 minutes in the incubator. The suspended cells harvested, aspirated to a falcon tube, centrifuged at 2000 rpm for 5 minutes. Cell count performed after suspending the cells into a fresh media and stained with trypan blue, counted and used for preparation of the appropriate number of cells.

[12] = target: T1, Topoisomerase I (Homo sapiens, UniProt P11387); test: Topoisomerase I inhibition assay (ELISA kit of human DNA topoisomerase); conditions: for TOPO I fld (fold of control): HCT116, control = 1; for Topoisomerase I % Inhibition: in comparison to negative control
T1 sequence (P11387 1-765): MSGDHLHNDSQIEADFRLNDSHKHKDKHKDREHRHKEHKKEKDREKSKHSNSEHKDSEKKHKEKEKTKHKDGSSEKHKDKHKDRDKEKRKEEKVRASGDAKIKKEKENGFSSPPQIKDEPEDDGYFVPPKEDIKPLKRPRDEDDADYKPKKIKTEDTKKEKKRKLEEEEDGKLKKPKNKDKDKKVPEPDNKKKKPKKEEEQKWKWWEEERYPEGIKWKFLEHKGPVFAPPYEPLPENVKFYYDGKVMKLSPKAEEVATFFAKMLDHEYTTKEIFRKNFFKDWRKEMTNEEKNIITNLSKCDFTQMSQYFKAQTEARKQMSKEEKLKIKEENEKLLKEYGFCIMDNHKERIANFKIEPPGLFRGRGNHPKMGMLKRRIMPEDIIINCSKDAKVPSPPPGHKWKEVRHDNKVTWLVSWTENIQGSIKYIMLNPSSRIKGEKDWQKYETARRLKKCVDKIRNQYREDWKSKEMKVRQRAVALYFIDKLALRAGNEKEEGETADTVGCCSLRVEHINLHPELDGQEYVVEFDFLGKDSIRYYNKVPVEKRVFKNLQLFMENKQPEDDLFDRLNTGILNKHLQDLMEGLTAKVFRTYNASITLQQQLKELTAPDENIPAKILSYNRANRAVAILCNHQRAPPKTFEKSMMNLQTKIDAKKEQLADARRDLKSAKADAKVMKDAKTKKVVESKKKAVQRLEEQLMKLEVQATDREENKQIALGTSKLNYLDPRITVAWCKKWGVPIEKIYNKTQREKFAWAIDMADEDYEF
Protocol: The assay was performed using a commercially available Topoisomerase I Drug Screening Kit (TopoGen, Inc., Cat. # TG1015-1, Buena Vista, CO, USA) according to the manufacturer’s instructions, with minor modifications.
Evaluation of Topoisomerase I/II inhibition
Two folds of serial dilution was accomplished after standards and the tested compounds were dissolved in sample diluent.
Horseradish peroxidase (HRP-avidin) and biotin-conjugated antibody were diluted 10 times each.
Each well received 100 μL of each concentration of the standard or test chemicals, which were then added and incubated at 37 °C for 60 min. After each well's liquid had been carefully removed,
incubated for 1 h at 37 °C. The microtiter plate was rinsed three times and given room to aspirate.
After that, the plate was incubated at 37 °C for 60 min with 100 μL of HRP-avidin solution added to each well. After that, the plate was aspirated and cleaned 5 times. Each well received 90 μL of TMB substrate, and the plate was incubated for 30 min. at 37 °C in a light-protected environment.
Finally, stop solution (50 μL) was loaded, and within 5 minutes, the absorbance at 450 nm was measured spectrophotometrically.

[13] = target: topoisomerase IIβ (Homo sapiens, UniProt Q02880); test: Topoisomerase II inhibition assay (ELISA kit of human DNA topoisomerase); conditions: for TOPO II fld (fold of control): HCT116, control = 1; for Topoisomerase II % Inhibition: in comparison to negative control
[14] = test system: Non-Small-Cell Lung Cancer cell lines; test: NCI five-dose testing, subpanel (MID b, selectivity); conditions: for SI: full-panel MG-MID / subpanel MG-MID, Non-Small-Cell Lung Cancer; for MG-MID: mean activity across subpanel Non-Small-Cell Lung Cancer
Text: as §1, §2, §7, §8, §5, §6

[15] = test system: Ovarian Cancer cell lines; test: as above; conditions: for SI: full-panel MG-MID / subpanel MG-MID, Ovarian Cancer; for MG-MID: mean activity across subpanel Ovarian Cancer
Text: as §1, §2, §3, §4, §5, §6

[16] = test system: Leukemia cancer cell lines; test: NCI five-dose testing, subpanel (GI50 range, MID b, selectivity); conditions: for GI50: Homo sapiens; for SI: full-panel MG-MID / subpanel MG-MID, Leukemia; for MG-MID: mean activity across subpanel Leukemia
Text: as §1, §2, §7, §8, §5, §6

[17] = test system: caspase-3; test: Relative gene expression by qRT-PCR in HCT-116; assay type: cell-based, human; conditions: HCT116; untreated control = 1
[18] = test system: caspase-9; test: Relative gene expression by qRT-PCR in HCT-116; assay type: cell-based, human; conditions: HCT116; untreated control = 1
[19] = test system: Bax; test: Relative gene expression by qRT-PCR in HCT-116; assay type: cell-based, human; conditions: HCT116; untreated control = 1

Sequence of topoisomerase IIβ (Q02880 2-1626): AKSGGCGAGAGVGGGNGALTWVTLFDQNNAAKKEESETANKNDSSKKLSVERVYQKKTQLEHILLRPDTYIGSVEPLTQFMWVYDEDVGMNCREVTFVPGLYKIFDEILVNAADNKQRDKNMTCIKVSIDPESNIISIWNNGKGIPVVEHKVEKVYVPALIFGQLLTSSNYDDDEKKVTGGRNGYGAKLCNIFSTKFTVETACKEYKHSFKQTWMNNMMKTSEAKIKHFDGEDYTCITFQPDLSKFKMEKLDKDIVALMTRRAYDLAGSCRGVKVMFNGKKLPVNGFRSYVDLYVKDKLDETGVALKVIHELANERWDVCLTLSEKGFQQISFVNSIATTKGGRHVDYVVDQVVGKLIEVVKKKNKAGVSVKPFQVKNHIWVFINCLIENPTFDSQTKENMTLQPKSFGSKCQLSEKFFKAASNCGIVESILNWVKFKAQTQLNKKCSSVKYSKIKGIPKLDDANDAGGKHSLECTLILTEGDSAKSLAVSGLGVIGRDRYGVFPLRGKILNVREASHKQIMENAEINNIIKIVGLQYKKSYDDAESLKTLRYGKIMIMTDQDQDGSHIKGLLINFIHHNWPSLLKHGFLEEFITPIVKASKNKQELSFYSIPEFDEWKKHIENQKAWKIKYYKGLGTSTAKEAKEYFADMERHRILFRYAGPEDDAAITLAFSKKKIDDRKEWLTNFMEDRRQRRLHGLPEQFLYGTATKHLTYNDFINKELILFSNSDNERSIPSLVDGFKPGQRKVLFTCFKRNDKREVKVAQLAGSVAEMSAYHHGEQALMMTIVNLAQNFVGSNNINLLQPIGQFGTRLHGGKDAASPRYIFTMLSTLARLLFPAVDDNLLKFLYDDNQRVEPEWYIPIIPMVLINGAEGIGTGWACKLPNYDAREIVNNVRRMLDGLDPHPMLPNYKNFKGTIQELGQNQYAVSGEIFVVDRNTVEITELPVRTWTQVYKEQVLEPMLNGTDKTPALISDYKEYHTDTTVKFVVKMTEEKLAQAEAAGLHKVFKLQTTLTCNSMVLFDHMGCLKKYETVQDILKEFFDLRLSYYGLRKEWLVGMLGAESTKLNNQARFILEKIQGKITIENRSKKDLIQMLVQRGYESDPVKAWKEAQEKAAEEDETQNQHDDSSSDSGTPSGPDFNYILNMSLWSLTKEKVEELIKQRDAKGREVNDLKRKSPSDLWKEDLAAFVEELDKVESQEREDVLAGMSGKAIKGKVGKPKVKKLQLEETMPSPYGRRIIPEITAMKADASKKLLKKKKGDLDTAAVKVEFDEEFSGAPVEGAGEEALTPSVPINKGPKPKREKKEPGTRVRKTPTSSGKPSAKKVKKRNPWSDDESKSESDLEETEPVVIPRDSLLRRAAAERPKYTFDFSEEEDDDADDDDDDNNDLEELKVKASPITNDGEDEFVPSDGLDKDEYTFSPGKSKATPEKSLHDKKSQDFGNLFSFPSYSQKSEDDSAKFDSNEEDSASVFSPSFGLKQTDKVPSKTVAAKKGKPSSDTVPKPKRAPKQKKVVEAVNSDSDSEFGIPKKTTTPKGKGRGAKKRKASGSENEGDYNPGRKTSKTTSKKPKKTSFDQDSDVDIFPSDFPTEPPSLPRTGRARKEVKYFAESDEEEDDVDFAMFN

Which viability at 0.4 µM [1] does the source give for `Cc1nc(SCC(=O)N2CCN(c3cc4c(cc3F)c(=O)c(C(=O)O)cn4C3CC3)CC2)sc1C(=O)/C=C/c1cccc(Cl)c1` [Compound 4b, (E)-7-(4-(2-((5-(3-(3-Chlorophenyl)acryloyl)-4-methylthiazol-2-yl)thio)acetyl)piperazin-1-yl)-1-cyclopropyl-6-fluoro-4-oxo-1,4-dihydroquinoline-3-carboxylic Acid] here?
The viability at 0.4 µM was 82.8%.

And the viability at 1.6 µM [1]?
Its viability at 1.6 µM is 71.8%.

What about the viability at 6.3 µM [1] of the same compound?
The viability at 6.3 µM was 63.5%.

What about the viability at 25 µM [1] of the same compound?
The viability at 25 µM was 52.9%.

What about the viability at 100 µM [1] of the same compound?
The viability at 100 µM was 37.1%.

What about the IC50 [1] of the same compound?
Its IC50 is 26.8 ± 0.92 µM.

And the IC50 [2]?
Its IC50 is 0.3 to 3.7 µM.

What about the SI [3] of the same compound?
The SI was 0.70.

What about the MG-MID [3] of the same compound?
The MG-MID was 100.0 µM.

And the “Apoptosis Late” value [4]?
Its value is 22.37%.

And the “Apoptosis Early” value [4]?
The value was 6.96%.

What about the “Apoptosis Total” value [4] of the same compound?
The value was 29.33%.

And the Necrosis [4]?
The Necrosis was 3.66%.

And the SI [5]?
The SI was 0.95.

And the MG-MID [5]?
Its MG-MID is 74.08 µM.

What about the SI [6] of the same compound?
Its SI is 1.01.

What about the MG-MID [6] of the same compound?
Its MG-MID is 69.63 µM.

What about the SI [7] of the same compound?
The SI was 1.04.

And the MG-MID [7]?
The MG-MID was 67.8 µM.

And the TGI [8]?
The TGI was 100.0 µM.

And the GI50 [8]?
The GI50 was greater than 100 µM.

What about the IC50 [8] of the same compound?
Its IC50 is greater than 100 µM.

And the LC50 (concentration killing 50% of cells) [8]?
Its LC50 (concentration killing 50% of cells) is greater than 100 µM.

And the SI [9]?
The SI was 1.5.

What about the GI50 [10] of the same compound?
Its GI50 is 0.3 to 15.1 µM.

What about the SI [10] of the same compound?
Its SI is 2.18.

What about the MG-MID [10] of the same compound?
The MG-MID was 32.16 µM.

What about the “Cell cycle arrest phase” value [11] of the same compound?
Its value is “G1 phase”.

And the “DNA Content G2/M Phase” value [11]?
Its value is 2.92%.

What about the “DNA Content S Phase” value [11] of the same compound?
Its value is 23.23%.

What about the “DNA Content G0-G1 Phase” value [11] of the same compound?
The value was 73.85%.

What about the “TOPO I fld (fold of control)” value [12] of the same compound?
Its value is 0.227.

What about the “Topoisomerase I % Inhibition” value [12] of the same compound?
Its value is 77.3%.

What about the “TOPO II fld (fold of control)” value [13] of the same compound?
The value was 0.266.

What about the “Topoisomerase II % Inhibition” value [13] of the same compound?
The value was 73.4%.

What about the SI [14] of the same compound?
The SI was 0.73.

What about the MG-MID [14] of the same compound?
Its MG-MID is 96.35 µM.

And the SI [15]?
The SI was 0.77.

And the MG-MID [15]?
Its MG-MID is 91.67 µM.

What about the GI50 [16] of the same compound?
The GI50 was 0.2 to 12.9 µM.

And the SI [16]?
Its SI is 9.22.

And the MG-MID [16]?
The MG-MID was 7.62 µM.

For `Cc1nc(SCC(=O)N2CCN(c3cc4c(cc3F)c(=O)c(C(=O)O)cn4C3CC3)CC2)sc1C(=O)/C=C/c1cccc(F)c1` [Compound 4d, (E)-1-Cyclopropyl-6-fluoro-7-(4-(2-((5-(3-(3-fluorophenyl)acryloyl)-4-methylthiazol-2-yl)thio)acetyl)piperazin-1-yl)-4-oxo-1,4-dihydroquinoline-3-carboxylic Acid], which “Relative gene expression of caspase-3” value [17] is on record?
The value was 10.86 fold.

And the viability at 0.4 µM [1]?
The viability at 0.4 µM was 83.4%.

And the viability at 1.6 µM [1]?
Its viability at 1.6 µM is 72.8%.

What about the viability at 6.3 µM [1] of the same compound?
Its viability at 6.3 µM is 64.1%.

And the viability at 25 µM [1]?
Its viability at 25 µM is 52.9%.

And the viability at 100 µM [1]?
Its viability at 100 µM is 44%.

What about the IC50 [1] of the same compound?
Its IC50 is 41.2 ± 1.42 µM.

And the IC50 [2]?
The IC50 was 0.3 to 3.7 µM.

What about the SI [3] of the same compound?
Its SI is 0.70.

What about the MG-MID [3] of the same compound?
Its MG-MID is 100.0 µM.

And the “Apoptosis Late” value [4]?
The value was 26.29%.

What about the “Apoptosis Early” value [4] of the same compound?
Its value is 11.92%.

And the “Apoptosis Total” value [4]?
Its value is 38.21%.

And the Necrosis [4]?
The Necrosis was 3.82%.

And the SI [5]?
The SI was 0.89.

What about the MG-MID [5] of the same compound?
Its MG-MID is 79.00 µM.

What about the SI [6] of the same compound?
Its SI is 0.97.

What about the MG-MID [6] of the same compound?
Its MG-MID is 72.0 µM.

What about the SI [7] of the same compound?
The SI was 0.99.

And the MG-MID [7]?
Its MG-MID is 71.1 µM.

What about the “Relative gene expression of caspase-9” value [18] of the same compound?
Its value is 4.2 fold and 4.214 fold.

And the “Relative gene expression of Bax” value [19]?
The value was 5.58 fold and 5.577 fold.

What about the TGI [8] of the same compound?
Its TGI is 100.0 µM.

And the GI50 [8]?
Its GI50 is greater than 100 µM.

And the IC50 [8]?
Its IC50 is greater than 100 µM.

And the LC50 (concentration killing 50% of cells) [8]?
The LC50 (concentration killing 50% of cells) was greater than 100 µM.

What about the SI [9] of the same compound?
The SI was 1.5.

And the GI50 [10]?
The GI50 was 0.52 to 4.9 µM.

And the SI [10]?
Its SI is 2.8.

And the MG-MID [10]?
Its MG-MID is 25.3 µM.

What about the “Cell cycle arrest phase” value [11] of the same compound?
The value was “G1 phase”.

What about the “DNA Content G2/M Phase” value [11] of the same compound?
The value was 3.75%.

And the “DNA Content S Phase” value [11]?
The value was 18.33%.

And the “DNA Content G0-G1 Phase” value [11]?
Its value is 77.92%.

And the “TOPO I fld (fold of control)” value [12]?
The value was 0.277.

What about the “Topoisomerase I % Inhibition” value [12] of the same compound?
The value was 72.3%.

What about the “TOPO II fld (fold of control)” value [13] of the same compound?
The value was 0.481.

And the “Topoisomerase II % Inhibition” value [13]?
The value was 51.9%.

And the SI [14]?
The SI was 0.81.

And the MG-MID [14]?
The MG-MID was 86.5 µM.

And the SI [15]?
Its SI is 0.70.

What about the MG-MID [15] of the same compound?
The MG-MID was 100 µM.

What about the GI50 [16] of the same compound?
The GI50 was 0.19 to 3.39 µM.

And the SI [16]?
The SI was 24.6.

What about the MG-MID [16] of the same compound?
The MG-MID was 2.9 µM.
